PubChem BioAssay (NCI)
Where “and” joins values, the source holds several entries; their conditions need not be identical. Identical values can stand only once.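 Protocol summary: plate cells (96-well), add compound at 5 concentrations, incubate 48 h, interpolate endpoints linearly. Here, GI50 denotes the concentration required for 50% inhibition of growth. TGI: concentration producing complete growth inhibition.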

Assays:
Assay in all cases: NCI anticancer screen, dose series, 48 h
[1] = tested on: NCI-H522 lung
[2] = tested on: HOP-62 NSCLC
[3] = tested on: HCT-116 colon
[4] = tested on: HCC-2998 colon
[5] = tested on: LOX IMVI melanoma
[6] = tested on: UACC-62 melanoma
[7] = tested on: NCI-H23 lung
[8] = tested on: TK-10 renal
[9] = tested on: DU-145 prostate
[10] = tested on: U251 CNS

SMILES	GI50 [1]	TGI [1]	GI50 [2]	TGI [2]	GI50 [3]	TGI [3]	GI50 [4]	TGI [4]	GI50 [5]	TGI [5]	GI50 [6]	TGI [6]	GI50 [7]	TGI [7]	GI50 [8]	TGI [8]	GI50 [9]	TGI [9]	GI50 [10]	TGI [10]
CN1CCN(Cc2ccc(NC(=O)c3[nH]ncc3Nc3ncnc4[nH]ccc34)cc2)CC1	0.283 µM	1.63 µM	0.348 µM	3.44 µM	0.214 µM	13.1 µM	0.367 µM	1.42 µM	0.201 µM	0.759 µM	0.411 µM	1.82 µM	0.295 µM	1.08 µM	0.562 µM	2.37 µM	0.311 µM	> 100 µM	0.251 µM	10.7 µM
Cc1ccc2oc(=O)c3c(O)c4cccc(OC5OC(C)C6O[C@@H](c7ccccc7)OC6C5OC5OC(C)C(O)C(O)C5O)c4c4oc(=O)c1c2c34 (some centres not stated)	0.104 µM	0.294 µM and 1.38 µM	0.105 µM	1.6 µM and 0.734 µM	0.0257 µM	–	0.0747 µM	1.72 µM	0.0293 µM and 0.0483 µM	0.538 µM and 1.51 µM	–	0.444 µM and 0.432 µM	0.0307 µM	0.276 µM	0.461 µM	3.81 µM and 8.95 µM	–	1.27 µM	0.0825 µM	1.16 µM and 1.58 µM
Cc1cc(=O)[nH]c(N/N=C/c2ccccc2O)n1	7.67 µM	> 100 µM	19 µM	> 100 µM	2.46 µM	> 100 µM	12.3 µM	> 100 µM	8.02 µM	> 100 µM	9.92 µM	51 µM	4.21 µM	> 100 µM	–	–	15.3 µM	> 100 µM	6.01 µM	> 100 µM
O=C1NC(=O)C(=Cc2cn(Cc3ccccc3)c3ccccc23)C(=O)N1	13.1 µM	37.2 µM	15.2 µM	37.7 µM	11.7 µM	27.5 µM	10.9 µM	29.5 µM	14.1 µM	33.1 µM	2.07 µM	15.7 µM	14.1 µM	34.2 µM	2.16 µM	8.58 µM	17.5 µM	40.4 µM	12.8 µM	28.9 µM
Cc1nc(NS(=O)(=O)c2ccc(NCN3C(=O)c4ccccc4C3=O)cc2)oc1C	> 100 µM	> 100 µM	> 100 µM	> 100 µM	> 100 µM	> 100 µM	> 100 µM	> 100 µM	> 100 µM	> 100 µM	> 100 µM	> 100 µM	> 100 µM	> 100 µM	> 100 µM	> 100 µM	> 100 µM	> 100 µM	> 100 µM	> 100 µM
C=C(C)[C@@H]1CCc2c(O)c(O)c(=O)cc(C)c2C1	–	> 96.6 µM	–	–	–	> 100 µM	–	> 100 µM	–	> 100 µM	–	48.3 µM	–	48.9 µM	–	43.7 µM	–	> 100 µM	–	> 100 µM
O=C1OCC2=C1C(c1cccc(C(F)(F)F)c1)c1cc3c(cc1N2CCO)OCCO3 (configuration not stated)	0.488 µM	2.89 µM	1.31 µM	> 33.3 µM	1.42 µM	> 33.3 µM	1.1 µM	> 33.3 µM	1.66 µM	> 33.3 µM	0.901 µM	> 33.3 µM	1.78 µM	> 33.3 µM	> 33.3 µM	> 33.3 µM	1.54 µM	> 33.3 µM	1.36 µM	> 33.3 µM
COc1cc(C2c3cc4c(cc3OC(O)C2C)OCO4)cc(OC)c1OC (configuration not stated)	–	0.713 µM	–	> 100 µM	–	> 69.9 µM	–	> 41.8 µM	–	> 100 µM	–	> 100 µM	–	–	–	> 100 µM	–	> 100 µM	–	> 40.1 µM
COc1ccc(C2NN=C3c4ccccc4CCC32)cc1 (configuration not stated)	3.21 µM	17.7 µM	95.3 µM	> 100 µM	6.85 µM	30.2 µM	12.4 µM	> 100 µM	8.25 µM	33.5 µM	8.34 µM	> 100 µM	12.6 µM	93.3 µM	16.9 µM	71.8 µM	19.2 µM	72.6 µM	5.92 µM	> 100 µM
COc1c(OC)c(OC)c2c(=O)cc(-c3ccc(OC(C)C)cc3)oc2c1OC	–	> 58.2 µM	–	37.5 µM	–	23.6 µM	–	> 53.2 µM	–	> 55.2 µM	–	32 µM	–	> 56.5 µM	–	> 53.9 µM	–	> 50.8 µM	–	> 52 µM
CCCCCCCCCCCNC=O	–	85.3 µM	–	> 100 µM	–	> 100 µM	–	86.1 µM	–	> 100 µM	–	> 100 µM	–	> 100 µM	–	> 100 µM	–	> 100 µM	–	> 100 µM
COC1=C(OC)C(=O)C(C/C=C(\C)CC/C=C(\C)CC/C=C(\C)CC/C=C(\C)CC/C=C(\C)CC/C=C(\C)CC/C=C(\C)CC/C=C(\C)CC/C=C(\C)CCC=C(C)C)=C(C)C1=O	> 100 µM	> 100 µM	> 100 µM	> 100 µM	> 100 µM	> 100 µM	> 100 µM	> 100 µM	> 100 µM	> 100 µM	> 100 µM	> 100 µM	> 100 µM	> 100 µM	> 100 µM	> 100 µM	> 100 µM	> 100 µM	> 100 µM	> 100 µM
Cc1ccc(S(=O)(=O)n2cc([C@@]3(O)C[C@H](CSC#N)OC3=O)c3ccccc32)cc1	3.99 µM	18.1 µM	25.1 µM	57.4 µM	5.07 µM	17.7 µM	27 µM	> 100 µM	8.83 µM	66.4 µM	15 µM	35.5 µM	26.5 µM	> 100 µM	16.3 µM	37.8 µM	4.39 µM	15.3 µM	12.8 µM	32.7 µM
COc1cc(OC)c2c(=O)cc(-c3ccccc3OCc3ccccc3)oc2c1OC	50.7 µM	> 100 µM	10.7 µM	44.4 µM	9.22 µM	50.5 µM	2.39 µM	7.54 µM	10.2 µM	> 100 µM	4.14 µM	17.7 µM	5.94 µM	23.4 µM	6.56 µM	34.9 µM	18.5 µM	> 100 µM	9.59 µM	> 100 µM
CC(C)=Cc1cc(C)c2ccc(C)c3c2c1C(C)=C(O)C3=O	19.8 µM	46.4 µM	28.4 µM	61.7 µM	17.7 µM	34.8 µM	18 µM	37.4 µM	69.3 µM	> 100 µM	19.8 µM	46.7 µM	–	–	44.6 µM	> 100 µM	36.3 µM	> 100 µM	17.9 µM	56.4 µM
COC(=O)c1onc(C2OC(C)(C)OC2C(O)COC(c2ccccc2)(c2ccccc2)c2ccccc2)c1C(=O)OC (configuration not stated)	–	> 100 µM	–	> 100 µM	–	> 100 µM	–	> 100 µM	–	–	–	> 100 µM	–	> 100 µM	–	> 100 µM	–	> 100 µM	–	> 100 µM
CN1CCN(CCCOc2ccc3nc(Nc4ccc(F)c(F)c4)ccc3c2)CC1	1.44 µM	3.1 µM	1.86 µM	3.88 µM	1.49 µM	3.17 µM	1.71 µM	3.31 µM	1.53 µM	3.09 µM	–	–	3.15 µM	13.2 µM	2 µM	4.23 µM	3.07 µM	11.5 µM	1.69 µM	3.64 µM
C1CSC[C@H]2COC[C@@H](CSCCS1)S2	–	> 100 µM	–	> 100 µM	–	> 100 µM	–	> 100 µM	–	> 100 µM	–	–	–	> 100 µM	–	> 100 µM	–	> 100 µM	–	> 100 µM
CC(C)(C)c1ccc(C2CC(=O)C3=C(C2)Nc2ccccc2N(C(=O)c2ccccc2Cl)C3c2ccc(F)cc2)cc1 (configuration not stated)	–	–	> 100 µM	> 100 µM	> 100 µM	> 100 µM	> 100 µM	> 100 µM	> 100 µM	> 100 µM	> 100 µM	> 100 µM	> 100 µM	> 100 µM	–	–	> 100 µM	> 100 µM	> 100 µM	> 100 µM
CC(C)[P+](c1ccccc1)(c1ccccc1)c1ccccc1	2.6 µM	26.5 µM	19 µM	> 100 µM	3.94 µM	> 100 µM	3.36 µM	> 100 µM	9.94 µM	> 100 µM	4.2 µM	> 100 µM	–	–	–	–	7.29 µM	> 100 µM	4.11 µM	> 100 µM
COc1ccc(Nc2ncnc3ccc(-c4cncc(NS(C)(=O)=O)c4)cc23)cc1Cl	1.18 µM	4.08 µM	2.64 µM	22.6 µM	2.05 µM	5.69 µM	4.03 µM	15.4 µM	1.5 µM	4.28 µM	2.14 µM	8.31 µM	2.66 µM	15 µM	–	–	3.78 µM	15.2 µM	2.81 µM	13.6 µM
